Values belong to the compound of their own block, whether it stands above or below them. The source made the active and inactive calls.
How the values were obtained:
[1] = target: T1, E3 ubiquitin-protein ligase XIAP (Homo sapiens, UniProt P98170); assay: XIAP antagonists, biochemical, IAP family, fluorescence polarization (AID 1018); format: functional
[2] = target: T1, E3 ubiquitin-protein ligase XIAP; assay: Counter Screen using XIAP-Bir3 for Chemical Antagonists of Bir1/2 domains of IAP-family anti-apoptotic proteins. [Related pubchem assays (depositor defined):AID1018, AID1449, AID1514, AID1638, AID1749, AID1750, AID488957, AID488963]
[3] = target: DNA dC->dU-editing enzyme APOBEC-3G (Homo sapiens, UniProt Q9HC16); assay: Dose Response confirmation of small molecule APOBEC3G DNA Deaminase Inhibitors via a fluorescence-based single-stranded DNA deaminase assay. [Related pubchem assays (depositor defined):AID493012, AID493028]; format: functional
Sequence of DNA dC->dU-editing enzyme APOBEC-3G (Q9HC16 whole entry): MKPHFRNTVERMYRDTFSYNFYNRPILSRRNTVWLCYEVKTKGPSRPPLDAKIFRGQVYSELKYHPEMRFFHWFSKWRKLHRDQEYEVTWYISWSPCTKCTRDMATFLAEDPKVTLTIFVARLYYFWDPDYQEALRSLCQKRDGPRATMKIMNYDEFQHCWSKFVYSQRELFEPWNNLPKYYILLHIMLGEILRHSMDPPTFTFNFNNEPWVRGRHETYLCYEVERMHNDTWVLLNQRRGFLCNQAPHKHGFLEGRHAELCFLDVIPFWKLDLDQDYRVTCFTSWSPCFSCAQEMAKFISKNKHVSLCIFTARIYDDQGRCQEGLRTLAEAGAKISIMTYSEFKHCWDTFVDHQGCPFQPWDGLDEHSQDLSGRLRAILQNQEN

[4] = target: Alkaline phosphatase, placental type (Homo sapiens, UniProt P05187); assay: PLAP enzyme inhibitors, confirmation, biochemical, luminescence (AID 1512); format: functional
Sequence of Alkaline phosphatase, placental type (P05187 whole entry): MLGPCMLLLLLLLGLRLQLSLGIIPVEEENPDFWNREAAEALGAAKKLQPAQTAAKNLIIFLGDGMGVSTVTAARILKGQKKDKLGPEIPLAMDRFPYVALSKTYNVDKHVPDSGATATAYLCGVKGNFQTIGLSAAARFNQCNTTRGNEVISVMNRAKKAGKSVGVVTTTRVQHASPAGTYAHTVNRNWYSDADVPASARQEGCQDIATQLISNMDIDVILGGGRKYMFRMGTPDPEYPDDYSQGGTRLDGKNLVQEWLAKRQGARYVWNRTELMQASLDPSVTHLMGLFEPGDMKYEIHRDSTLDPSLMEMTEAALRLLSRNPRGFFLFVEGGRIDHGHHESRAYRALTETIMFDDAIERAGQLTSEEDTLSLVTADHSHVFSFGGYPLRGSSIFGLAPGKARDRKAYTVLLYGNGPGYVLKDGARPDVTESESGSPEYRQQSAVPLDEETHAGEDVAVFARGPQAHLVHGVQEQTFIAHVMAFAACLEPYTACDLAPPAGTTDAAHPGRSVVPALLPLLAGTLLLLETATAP

[5] = target: T2, Intestinal-type alkaline phosphatase (Homo sapiens, UniProt P09923); assay: human intestinal alkaline phosphatase activators, dose response, biochemical, luminescence, uHTS hits (AID 463120); format: functional
T2 sequence (P09923 whole entry): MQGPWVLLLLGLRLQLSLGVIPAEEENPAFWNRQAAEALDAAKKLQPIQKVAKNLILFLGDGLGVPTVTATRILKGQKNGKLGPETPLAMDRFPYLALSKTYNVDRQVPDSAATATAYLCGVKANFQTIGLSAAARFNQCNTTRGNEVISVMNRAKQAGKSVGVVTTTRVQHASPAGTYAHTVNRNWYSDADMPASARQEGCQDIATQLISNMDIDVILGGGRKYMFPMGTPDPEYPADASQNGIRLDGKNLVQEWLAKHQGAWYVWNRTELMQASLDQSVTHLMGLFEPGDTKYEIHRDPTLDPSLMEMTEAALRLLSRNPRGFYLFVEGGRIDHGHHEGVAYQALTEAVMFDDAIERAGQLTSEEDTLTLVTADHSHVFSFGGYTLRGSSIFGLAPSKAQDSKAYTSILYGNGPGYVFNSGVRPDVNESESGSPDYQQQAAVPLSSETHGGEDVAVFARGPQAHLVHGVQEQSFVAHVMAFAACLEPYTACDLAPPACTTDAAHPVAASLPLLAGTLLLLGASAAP

[6] = target: T3, Alkaline phosphatase, tissue-nonspecific isozyme (Homo sapiens, UniProt P05186); assay: TNAP enzyme activators, dose response, selectivity assay for human IAP activator project, biochemical, TNAP isozyme, human IAP uHTS hits (AID 488886); format: functional;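 further: potency of compounds raising TNAP activity as a selectivity check on IAP activators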
T3 sequence (P05186 whole entry): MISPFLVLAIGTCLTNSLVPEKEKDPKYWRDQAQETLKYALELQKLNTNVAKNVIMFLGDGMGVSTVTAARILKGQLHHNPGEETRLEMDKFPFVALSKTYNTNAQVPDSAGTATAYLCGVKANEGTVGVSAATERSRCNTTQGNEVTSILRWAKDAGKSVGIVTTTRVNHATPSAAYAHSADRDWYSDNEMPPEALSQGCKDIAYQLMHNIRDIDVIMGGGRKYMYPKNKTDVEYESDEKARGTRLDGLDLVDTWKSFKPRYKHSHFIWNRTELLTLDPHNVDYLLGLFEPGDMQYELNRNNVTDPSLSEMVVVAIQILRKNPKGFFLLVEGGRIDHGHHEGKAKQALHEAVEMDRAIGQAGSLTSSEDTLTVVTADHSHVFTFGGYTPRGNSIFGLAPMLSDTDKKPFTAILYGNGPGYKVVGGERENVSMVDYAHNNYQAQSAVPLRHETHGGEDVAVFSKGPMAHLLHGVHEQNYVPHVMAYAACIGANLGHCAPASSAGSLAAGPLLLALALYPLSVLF

[7] = target: T4, Intestinal-type alkaline phosphatase (Mus musculus, UniProt P24822); assay: PubChem AID 488875; format: functional
T4 sequence (P24822 whole entry): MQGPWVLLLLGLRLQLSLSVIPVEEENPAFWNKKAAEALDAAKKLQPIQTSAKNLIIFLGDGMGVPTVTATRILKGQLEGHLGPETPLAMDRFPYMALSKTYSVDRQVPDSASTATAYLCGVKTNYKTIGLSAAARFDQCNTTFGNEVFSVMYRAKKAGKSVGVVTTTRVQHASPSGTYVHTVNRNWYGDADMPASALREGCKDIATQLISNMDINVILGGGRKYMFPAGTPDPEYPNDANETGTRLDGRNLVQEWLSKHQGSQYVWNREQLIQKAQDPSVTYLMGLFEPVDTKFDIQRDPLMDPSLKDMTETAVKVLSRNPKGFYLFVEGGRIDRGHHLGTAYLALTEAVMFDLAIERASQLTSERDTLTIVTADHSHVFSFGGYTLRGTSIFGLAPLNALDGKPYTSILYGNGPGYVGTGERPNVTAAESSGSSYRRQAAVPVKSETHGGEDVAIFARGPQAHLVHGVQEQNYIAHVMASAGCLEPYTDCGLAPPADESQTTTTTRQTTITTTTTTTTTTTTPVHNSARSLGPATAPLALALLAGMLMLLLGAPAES

[8] = target: T2, Intestinal-type alkaline phosphatase; assay: human IAP activators, dose response, biochemical, luminescent, uHTS hits, set 2 (AID 488817); format: functional;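 further: potency of activators that raise enzyme activity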
[9] = target: T2, Intestinal-type alkaline phosphatase; assay: Dose Response confirmation of uHTS hits from a small molecule inhibitors of human intestinal alkaline phosphatase via a luminescent assay. [Related pubchem assays (depositor defined):AID2544, AID2574]; format: functional
[10] = target: T2, Intestinal-type alkaline phosphatase; assay: human IAP inhibitors, dose response, biochemical, luminescent, uHTS hits, set 2 (AID 488793); format: functional
[11] = target: T4, Intestinal-type alkaline phosphatase; assay: PubChem AID 488785; format: functional
[12] = C. albicans growth with fluconazole, confirmation, fluorescence, retest (AID 2467); format: functional, cell-based
[13] = target: T2, Intestinal-type alkaline phosphatase; assay: inhibition of human intestinal alkaline phosphatase – biochemical, dose response (AID 488876); format: functional
[14] = target: T3, Alkaline phosphatase, tissue-nonspecific isozyme; assay: TNAP enzyme inhibition by screening hits, dose response, selectivity assay for mouse IAP inhibitor project, biochemical, human TNAP, uHTS hits (AID 488906); format: functional
[15] = NIH-3T3 fibroblast cytotoxicity, dose response, cytotoxicity control, cell-based, fluorescence, Alamar Blue, secondary assay (AID 2327); format: functional;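 further: NIH-3T3 mouse fibroblasts cultured with fluconazole at 8 µg/mL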
SUMO-activating enzyme [16] = target: T5, SUMO-activating enzyme (Homo sapiens, UniProt Q9UBT2); assay: SUMOylation inhibitor hit validation, confirmation, SUMOylation inhibitor project, biochemical, AlphaScreen (AID 2018); format: functional
T5 sequence (Q9UBE0 whole entry): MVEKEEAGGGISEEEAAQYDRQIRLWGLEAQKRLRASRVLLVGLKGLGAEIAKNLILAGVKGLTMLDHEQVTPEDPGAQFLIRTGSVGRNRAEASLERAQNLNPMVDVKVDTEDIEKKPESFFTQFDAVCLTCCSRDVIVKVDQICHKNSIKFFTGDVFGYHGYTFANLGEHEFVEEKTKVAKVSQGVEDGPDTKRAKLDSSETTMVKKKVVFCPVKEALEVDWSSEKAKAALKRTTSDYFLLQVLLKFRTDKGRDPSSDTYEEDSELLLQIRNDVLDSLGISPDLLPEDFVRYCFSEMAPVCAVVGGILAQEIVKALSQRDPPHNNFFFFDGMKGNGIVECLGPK
T5 sequence (Q9UBT2 whole entry): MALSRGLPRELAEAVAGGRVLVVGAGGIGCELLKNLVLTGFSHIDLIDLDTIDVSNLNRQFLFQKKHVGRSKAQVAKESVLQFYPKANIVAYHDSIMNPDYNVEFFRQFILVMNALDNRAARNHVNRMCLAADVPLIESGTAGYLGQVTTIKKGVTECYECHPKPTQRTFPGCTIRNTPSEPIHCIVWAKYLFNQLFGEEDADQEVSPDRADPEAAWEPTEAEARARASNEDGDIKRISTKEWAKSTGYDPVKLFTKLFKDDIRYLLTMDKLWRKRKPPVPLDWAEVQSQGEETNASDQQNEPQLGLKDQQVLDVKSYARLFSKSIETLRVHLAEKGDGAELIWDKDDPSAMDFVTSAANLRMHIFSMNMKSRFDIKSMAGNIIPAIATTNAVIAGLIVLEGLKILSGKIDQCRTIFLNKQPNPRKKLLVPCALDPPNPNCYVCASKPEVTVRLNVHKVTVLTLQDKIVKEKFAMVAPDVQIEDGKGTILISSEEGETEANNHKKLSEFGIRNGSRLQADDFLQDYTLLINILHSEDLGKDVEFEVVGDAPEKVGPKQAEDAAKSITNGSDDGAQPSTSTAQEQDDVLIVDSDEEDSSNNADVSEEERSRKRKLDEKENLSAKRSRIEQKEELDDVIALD

[17] = target: Induced myeloid leukemia cell differentiation protein Mcl-1 (Homo sapiens, UniProt Q07820); format: functional
Sequence of Induced myeloid leukemia cell differentiation protein Mcl-1 (Q07820 whole entry): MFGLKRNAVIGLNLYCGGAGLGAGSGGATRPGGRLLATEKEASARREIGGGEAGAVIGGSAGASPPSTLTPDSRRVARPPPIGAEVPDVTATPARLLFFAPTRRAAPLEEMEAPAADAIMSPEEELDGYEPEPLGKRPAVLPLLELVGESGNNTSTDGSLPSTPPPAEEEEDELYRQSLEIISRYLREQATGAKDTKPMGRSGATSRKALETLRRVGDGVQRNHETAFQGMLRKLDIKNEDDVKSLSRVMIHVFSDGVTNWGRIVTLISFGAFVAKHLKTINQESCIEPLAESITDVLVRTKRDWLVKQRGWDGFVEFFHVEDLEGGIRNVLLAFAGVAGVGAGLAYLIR

SUMO-activating enzyme [18] = target: T5, SUMO-activating enzyme; assay: inhibitors of in vitro SUMOylation cascade, primary screen, biochemical, HTRF, uHTS (AID 2006); format: protein-complex assay
Troponin, cardiac muscle = Troponin, cardiac muscle (Homo sapiens, UniProt P19429+P45379+P63316); assay: Fluorescence-based biochemical high throughput dose response assay for activators of the calcium sensitivity of cardiac Regulated Thin Filaments (RTF). [Related pubchem assays (depositor defined):AID493008, AID493018, AID504382, AID504383]; format: protein-complex assay

T1 sequence (P98170 whole entry): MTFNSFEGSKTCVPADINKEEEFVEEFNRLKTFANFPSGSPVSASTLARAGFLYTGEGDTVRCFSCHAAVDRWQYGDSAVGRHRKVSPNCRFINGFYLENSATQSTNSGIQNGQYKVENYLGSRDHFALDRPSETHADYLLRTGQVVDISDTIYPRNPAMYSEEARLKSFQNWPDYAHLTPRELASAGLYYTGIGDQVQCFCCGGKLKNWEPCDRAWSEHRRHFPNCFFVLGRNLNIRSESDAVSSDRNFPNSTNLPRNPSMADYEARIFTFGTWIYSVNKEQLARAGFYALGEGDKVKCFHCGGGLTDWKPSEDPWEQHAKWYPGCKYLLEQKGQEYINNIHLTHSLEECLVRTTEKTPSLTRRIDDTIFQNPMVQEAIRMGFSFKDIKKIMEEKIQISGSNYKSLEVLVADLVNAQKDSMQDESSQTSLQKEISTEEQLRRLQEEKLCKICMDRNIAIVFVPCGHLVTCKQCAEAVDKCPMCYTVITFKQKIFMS

SMILES: CC(=O)NC(=S)NNC(=O)C(c1ccccc1)c1ccccc1
IC50 [3]: 35.1 µM (active)
IC50 [4]: > 100 µM (inactive)

SMILES: Cc1[nH]n(-c2nc(-c3ccccc3)cc(=O)[nH]2)c(=O)c1CCO
IC50 [9]: 2.82 µM (active)
EC50 [6]: 30.7 µM (active)
EC50 [7]: > 100 µM (inactive)
IC50 [10]: 2.36 µM (active)

SMILES: Cc1ccc(/C=C2\SC(=S)N(/N=C/c3cc([N+](=O)[O-])ccc3O)C2=O)o1
IC50 [11]: 61.9 µM (active)
EC50 [12]: 27.8 µM (active)
IC50 [13]: 80 µM (active)
IC50 [14]: > 100 µM (inactive)
EC50 [15]: > 150 µM (inactive)
IC50 (SUMO-activating enzyme [16]): 0.35 µM (active)
IC50 [17]: 1.53 µM (active)
IC50 (SUMO-activating enzyme [18]): 4.54 µM (active)

Now from value to compound:

IC50 [1]: > 100 µM (not active)
IC50 [2]: > 100 µM (inactive)
SMILES: Cc1ccc(-c2nc3ccccc3c(=O)n2CCN2CCOCC2)cc1

EC50 [5]: 6.37 µM (active)
EC50 [6]: 11 µM (active)
EC50 [7]: > 100 µM (inactive)
EC50 [8]: 12.3 µM (active)
SMILES: CC(=O)Nc1cccc(C(=O)NNC(=O)c2nnc(O)c3ccccc23)c1

EC50 (Troponin, cardiac muscle): > 71.5 µM (inactive)
SMILES: NC(=O)C1CCN(C(=O)c2ccc(-c3ccccc3)cc2)CC1
